In the supplement of paper PMC7214452:
Structures can show the parent of a compound that is named as a salt.

Tests used:
Test in all cases: normalized area under the dose-response curve (viability relative to DMSO control) (fraction); higher = less sensitive (more viable cells)
Details in all cases: exposure time not given
[1] = test system: OCI-MY5/Vec (cancer type: MM)
Method: (§1)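 25 myeloma and 15 non-Hodgkin lymphoma cell lines were exposed to each of 76 drugs as 7-point log dilutions (0.01 nM–10 µM) in duplicate. Viability was read with CellTiter-Glo and normalised to DMSO (0.1%) and staurosporine (10 µM) plate controls. Normalised AUC was calculated by the trapezoidal method relative to the negative control.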

MM1.R (cancer type: MM) = test system: MM1.R (cancer type: MM)
Method: as §1

[2] = test system: OCI-LY19 (cancer type: DLBCL)
Method: as §1

LP1 (cancer type: MM) = test system: LP1 (cancer type: MM)
Method: as §1

[3] = test system: OCI-MY5/CRBN (cancer type: MM)
Method: as §1

JJN3 (cancer type: MM) = test system: JJN3 (cancer type: MM)
Method: as §1

KMS34 (cancer type: MM) = test system: KMS34 (cancer type: MM)
Method: as §1

AMO1 (cancer type: MM) = test system: AMO1 (cancer type: MM)
Method: as §1

[4] = test system: KMS28PE (cancer type: MM)
Method: as §1

[5] = test system: SU-DHL6 (cancer type: DLBCL)
Method: as §1

[6] = test system: JVM2 (cancer type: Mantle)
Method: as §1

OPM2 (cancer type: MM) = test system: OPM2 (cancer type: MM)
Method: as §1

[7] = test system: SU-DHL2 (cancer type: DLBCL)
Method: as §1

U266 (cancer type: MM) = test system: U266 (cancer type: MM)
Method: as §1

[8] = test system: OCI-LY1 (cancer type: DLBCL)
Method: as §1

[9] = test system: Mino (cancer type: Mantle)
Method: as §1

[10] = test system: RPMI 8226 (cancer type: MM)
Method: as §1

KMS18 (cancer type: MM) = test system: KMS18 (cancer type: MM)
Method: as §1

[11] = test system: OCI-MY7 (cancer type: MM)
Method: as §1

My-La (cancer type: TCL) = test system: My-La (cancer type: TCL)
Method: as §1

KMS11 (cancer type: MM) = test system: KMS11 (cancer type: MM)
Method: as §1

Se-Ax (cancer type: TCL) = test system: Se-Ax (cancer type: TCL)
Method: as §1

[12] = test system: Granta-519 (cancer type: Mantle)
Method: as §1

[13] = test system: OCI-LY3 (cancer type: DLBCL)
Method: as §1

FR4 (cancer type: MM) = test system: FR4 (cancer type: MM)
Method: as §1

SKMM2 (cancer type: MM) = test system: SKMM2 (cancer type: MM)
Method: as §1

[14] = test system: HuT 78 (cancer type: TCL)
Method: as §1

[15] = test system: SU-DHL1 (cancer type: TCL)
Method: as §1

[16] = test system: NCI-H929 (cancer type: MM)
Method: as §1

[17] = test system: SR-786 (cancer type: TCL)
Method: as §1

[18] = test system: KMS12PE (cancer type: MM)
Method: as §1

[19] = test system: Karpas-299 (cancer type: TCL)
Method: as §1

MM1.S (cancer type: MM) = test system: MM1.S (cancer type: MM)
Method: as §1

[20] = test system: OCI-MY5 (cancer type: MM)
Method: as §1

[21] = test system: JeKo-1 (cancer type: Mantle)
Method: as §1

EJM (cancer type: MM) = test system: EJM (cancer type: MM)
Method: as §1

KMS26 (cancer type: MM) = test system: KMS26 (cancer type: MM)
Method: as §1

XG2 (cancer type: MM) = test system: XG2 (cancer type: MM)
Method: as §1

[22] = test system: KMS28BM (cancer type: MM)
Method: as §1

L363 (cancer type: MM) = test system: L363 (cancer type: MM)
Method: as §1

Row | Structure (SMILES) | normalized area under the dose-response curve [1] | normalized area under the dose-response curve (MM1.R (cancer type: MM)) | normalized area under the dose-response curve [2] | normalized area under the dose-response curve (LP1 (cancer type: MM)) | normalized area under the dose-response curve [3] | normalized area under the dose-response curve (JJN3 (cancer type: MM)) | normalized area under the dose-response curve (KMS34 (cancer type: MM)) | normalized area under the dose-response curve (AMO1 (cancer type: MM)) | normalized area under the dose-response curve [4] | normalized area under the dose-response curve [5] | normalized area under the dose-response curve [6] | normalized area under the dose-response curve (OPM2 (cancer type: MM)) | normalized area under the dose-response curve [7] | normalized area under the dose-response curve (U266 (cancer type: MM)) | normalized area under the dose-response curve [8] | normalized area under the dose-response curve [9] | normalized area under the dose-response curve [10] | normalized area under the dose-response curve (KMS18 (cancer type: MM)) | normalized area under the dose-response curve [11] | normalized area under the dose-response curve (My-La (cancer type: TCL)) | normalized area under the dose-response curve (KMS11 (cancer type: MM)) | normalized area under the dose-response curve (Se-Ax (cancer type: TCL)) | normalized area under the dose-response curve [12] | normalized area under the dose-response curve [13] | normalized area under the dose-response curve (FR4 (cancer type: MM)) | normalized area under the dose-response curve (SKMM2 (cancer type: MM)) | normalized area under the dose-response curve [14] | normalized area under the dose-response curve [15] | normalized area under the dose-response curve [16] | normalized area under the dose-response curve [17] | normalized area under the dose-response curve [18] | normalized area under the dose-response curve [19] | normalized area under the dose-response curve (MM1.S (cancer type: MM)) | normalized area under the dose-response curve [20] | normalized area under the dose-response curve [21] | normalized area under the dose-response curve (EJM (cancer type: MM)) | normalized area under the dose-response curve (KMS26 (cancer type: MM)) | normalized area under the dose-response curve (XG2 (cancer type: MM)) | normalized area under the dose-response curve [22] | normalized area under the dose-response curve (L363 (cancer type: MM))
1 | COc1nc(N)nc2c1ncn2[C@@H]1O[C@H](CO)[C@@H](O)[C@@H]1O [Nelarabine] | 0.946 | 0.85 | 0.993 | 0.94 | 0.928 | 0.987 | 0.88 | 0.948 | 0.951 | 0.989 | 0.883 | 0.978 | 0.937 | 0.985 | 0.996 | 0.978 | 0.915 | 0.973 | 0.94 | 0.929 | 0.992 | 0.779 | 0.99 | 1.01 | 1.01 | 0.96 | 0.913 | 0.858 | 0.95 | 0.902 | 0.92 | 0.972 | 0.91 | 0.98 | 0.921 | 0.889 | 0.861 | 0.935 | 0.924 | 0.92
2 | Cc1cn(-c2cc(NC(=O)c3ccc(C)c(Nc4nccc(-c5cccnc5)n4)c3)cc(C(F)(F)F)c2)cn1 [Nilotinib] | 0.953 | 0.81 | 0.841 | 0.908 | 0.863 | 0.512 | 0.604 | 0.693 | 0.695 | 0.918 | 0.741 | 0.443 | 0.91 | 0.826 | 0.948 | 0.942 | 0.89 | 0.865 | 0.88 | 0.978 | 0.736 | 0.798 | 0.953 | 0.946 | 0.838 | 0.889 | 0.944 | 0.851 | 0.86 | 0.929 | 0.88 | 0.896 | 0.78 | 0.39 | 0.94 | 0.904 | 0.948 | 0.959 | 0.871 | 0.634
3 | COC(=O)c1ccc2c(c1)NC(=O)/C2=C(\Nc1ccc(N(C)C(=O)CN2CCN(C)CC2)cc1)c1ccccc1 [Nintedanib] | 0.957 | 0.84 | 0.906 | 0.828 | 0.929 | 0.979 | 0.835 | 0.801 | 0.737 | 0.919 | 0.815 | 0.844 | 0.966 | 0.941 | 0.98 | 0.956 | 0.791 | 0.934 | 0.97 | 0.902 | 0.723 | 0.92 | 0.942 | 0.992 | 0.911 | 0.943 | 0.883 | 0.839 | 0.87 | 0.828 | 0.94 | 0.862 | 0.79 | 0.846 | 0.933 | 0.784 | 0.764 | 0.764 | 0.87 | 0.798
4 | C=CC(=O)Nc1cc(Nc2nccc(-c3cn(C)c4ccccc34)n2)c(OC)cc1N(C)CCN(C)C [Osimertinib] | 0.535 | 0.45 | 0.872 | 0.406 | 0.551 | 0.439 | 0.337 | 0.423 | 0.476 | 0.911 | 0.597 | 0.489 | 0.925 | 0.451 | 0.937 | 0.601 | 0.429 | 0.442 | 0.42 | 0.769 | 0.417 | 0.445 | 0.834 | 0.931 | 0.582 | 0.506 | 0.473 | 0.463 | 0.47 | 0.521 | 0.46 | 0.574 | 0.44 | 0.399 | 0.626 | 0.429 | 0.532 | 0.422 | 0.53 | 0.466
5 | CC(=O)O[C@H]1C(=O)[C@@]2(C)[C@H]([C@H](OC(=O)c3ccccc3)[C@]3(O)C[C@H](OC(=O)[C@H](O)[C@@H](NC(=O)c4ccccc4)c4ccccc4)C(C)=C1C3(C)C)[C@]1(OC(C)=O)CO[C@@H]1C[C@@H]2O [Paclitaxel] | 0.478 | 0.58 | 0.652 | 0.865 | 0.595 | 0.993 | 0.787 | 0.595 | 0.675 | 0.793 | 0.78 | 0.89 | 0.642 | 0.51 | 0.354 | 0.556 | 0.781 | 0.702 | 0.86 | 0.896 | 0.853 | 0.635 | 0.544 | 0.582 | 0.703 | 0.98 | 0.329 | 0.611 | 0.49 | 0.417 | 0.85 | 0.454 | 0.52 | 0.666 | 0.3 | 0.751 | 0.767 | 0.542 | 0.698 | 0.726
6 | CC(=O)c1c(C)c2cnc(Nc3ccc(N4CCNCC4)cn3)nc2n(C2CCCC2)c1=O [Palbociclib] | 0.746 | 0.77 | 0.727 | 0.794 | 0.9 | 0.694 | 0.751 | 0.529 | 0.851 | 0.771 | 0.65 | 0.852 | 0.897 | 0.688 | 0.889 | 0.655 | 0.636 | 0.81 | 0.82 | 0.745 | 0.79 | 0.776 | 0.876 | 0.791 | 0.716 | 0.782 | 0.712 | 0.705 | 0.91 | 0.821 | 0.74 | 0.837 | 0.69 | 0.561 | 0.656 | 0.733 | 0.769 | 0.656 | 0.932 | 0.743
7 | Cc1[nH]c2ccccc2c1CCNCc1ccc(/C=C/C(=O)NO)cc1 [Panobinostat] | 0.173 | 0.35 | 0.36 | 0.592 | 0.13 | 0.56 | 0.333 | 0.444 | 0.52 | 0.501 | 0.347 | 0.812 | 0.286 | 0.389 | 0.167 | 0.303 | 0.682 | 0.618 | 0.47 | 0.422 | 0.659 | 0.244 | 0.424 | 0.322 | 0.594 | 0.698 | 0.249 | 0.23 | 0.16 | 0.374 | 0.42 | 0.187 | 0.25 | 0.297 | 0.284 | 0.188 | 0.454 | 0.483 | 0.567 | 0.613
8 | Cc1ccc(Nc2nccc(N(C)c3ccc4c(C)n(C)nc4c3)n2)cc1S(N)(=O)=O [Pazopanib hydrochloride] | 0.764 | 0.77 | 0.859 | 0.602 | 0.855 | 0.628 | 0.347 | 0.798 | 0.796 | 0.99 | 0.721 | 0.653 | 0.931 | 0.681 | 0.906 | 0.939 | 0.827 | 0.732 | 0.78 | 0.879 | 0.713 | 0.732 | 0.899 | 1 | 0.759 | 0.86 | 0.795 | 0.833 | 0.77 | 0.789 | 0.82 | 0.829 | 0.79 | 0.667 | 0.881 | 0.861 | 0.848 | 0.876 | 0.921 | 0.666
